Assay results published in article PMC12386561, “Broad-Spectrum Antimicrobial Potential of the γ-Core Motif Peptides of Filipendula ulmaria for Practical Applications in Agriculture and Medicine” (International Journal of Molecular Sciences, 2025).
Residues, ends and D or L forms follow the SMILES beside them.

Legend:
[1] = test system: Rhizoctonia solani VKM F-895; assay: Antifungal activity assay, spore germination and growth; type: cell-based; conditions: spores in half-strength potato dextrose broth, peptide 5–300 µM, 48 h, absorbance 595 nm, triplicate, mean ± SD; read-out: IC50 against R. solani
Method: (§1) The inhibitory activity of peptides on spore germination and growth of fungi was tested against nine fungal strains from the VKM: Fusarium culmorum VKM F-2303, F. oxysporum VKM F-137, F. solani VKM F-142, F. verticillioides VKM F-670, Aspergillus unguis VKM F-1754, Bipolaris sorokiniana VKM F-4006, Botrytis cinerea VKM F-4549, Rhizoctonia solani VKM F-895, and Penicillium gladioli VKM F-2088. The fungi were cultivated on potato dextrose agar at 25 °C for 7–8 days, while B. sorokiniana and B. cinerea were grown for 10–12 days. Spores were obtained by washing from the surface of the mycelia with sterile distilled water and filtered through a sterile filter. The filtrate was centrifuged at 6000 rpm for 15 min. The precipitate was washed three times with sterile distilled water and centrifuged at 10,000 rpm for 2 min. A total of 1 mL of sterile aqueous 20% glycerol solution was added to the spores, and spores were stored at −20 °C.
(§2) The antifungal effect of peptides was determined in microtiter plates by measuring the absorbance of the spore suspension in the presence of the peptide relative to the control. In the wells of a plate, 90 µL of spore suspension in half-strength potato dextrose broth at a concentration of 2000–3000 spores in 100 µL was mixed with 10 µL of aqueous solutions of peptides to obtain final concentrations of 5–300 µM. Each experiment was carried out in triplicate. The concentration of spores in the suspension was determined in a Goryaev chamber. The absorbance was recorded at 595 nm on a FilterMax F5 Multi-Mode Microplate Reader (Molecular Devices, San Jose, CA, USA) after 48 h of incubation. The antimicrobial activity was expressed in IC50 values.

[2] = test system: Bipolaris sorokiniana VKM F-4006; assay: as above; type: cell-based; conditions: spores in half-strength potato dextrose broth, peptide 5–300 µM, 48 h, absorbance 595 nm, triplicate, mean ± SD; read-out: IC50 against B. sorokiniana
Method: as §1, §2

[3] = test system: Botrytis cinerea VKM F-4549; type: cell-based; conditions: spores in half-strength potato dextrose broth, peptide 5–300 µM, 48 h, absorbance 595 nm, triplicate, mean ± SD; read-out: IC50 against B. cinerea
Method: as §1, §2

[4] = test system: Pectobacterium carotovorum subsp. carotovorum VKM B-1247; assay: Antimicrobial activity assay against bacteria, growth inhibition in microtiter plates; type: cell-based; conditions: modified YPD-P medium, peptide 0.5–300 µM, 30 °C, 24 h, absorbance 594 nm, triplicate, mean ± SD
Description: (§3) The IC50 values are presented as mean ± standard deviations.

[5] = test system: Fusarium culmorum VKM F-2303; assay: Antifungal activity assay, spore germination and growth; type: cell-based; conditions: spores in half-strength potato dextrose broth, peptide 5–300 µM, 48 h, absorbance 595 nm, triplicate, mean ± SD; for IC50: read-out: IC50 against F. culmorum
Method: as §1, §2

[6] = test system: F. oxysporum VKM F-137; type: cell-based, Fusarium oxysporum; conditions: spores in half-strength potato dextrose broth, peptide 5–300 µM, 48 h, absorbance 595 nm, triplicate, mean ± SD; for IC50: read-out: IC50 against F. oxysporum
Method: as §1, §2

[7] = test system: Aspergillus unguis VKM F-1754; type: cell-based; conditions: spores in half-strength potato dextrose broth, peptide 5–300 µM, 48 h, absorbance 595 nm, triplicate, mean ± SD; read-out: IC50 against A. unguis
Method: as §1, §2

[8] = test system: Penicillium gladioli VKM F-2088; type: cell-based; conditions: spores in half-strength potato dextrose broth, peptide 5–300 µM, 48 h, absorbance 595 nm, triplicate, mean ± SD; read-out: IC50 against P. gladioli
Method: as §1, §2

[9] = test system: Clavibacter michiganensis subsp. michiganensis VKM Ac-1403; assay: Antimicrobial activity assay against bacteria, growth inhibition in microtiter plates; type: cell-based; conditions: modified YPD-P medium, peptide 0.5–300 µM, 30 °C, 24 h, absorbance 594 nm, triplicate, mean ± SD
Description: as §3

[10] = test system: F. verticillioides VKM F-670; type: cell-based, Fusarium verticillioides; conditions: spores in half-strength potato dextrose broth, peptide 5–300 µM, 48 h, absorbance 595 nm, triplicate, mean ± SD; for IC50: read-out: IC50 against F. verticillioides
Method: as §1, §2

[11] = test system: Pseudomonas savastanoi pv. savastanoi VKM B-1546; type: cell-based; conditions: medium without glucose, peptide 0.5–300 µM, 30 °C, 24 h, absorbance 594 nm, triplicate, mean ± SD; for IC50: read-out: IC50 against P. savastanoi
Description: as §3

[12] = test system: Candida albicans VKM Y-2994; type: cell-based; conditions: YPD-P medium, peptide 0.5–300 µM, 30 °C, 24 h, absorbance 594 nm, triplicate, mean ± SD; read-out: IC50 against C. albicans
Description: as §3

[13] = test system: F. solani VKM F-142; type: cell-based, Fusarium solani; conditions: spores in half-strength potato dextrose broth, peptide 5–300 µM, 48 h, absorbance 595 nm, triplicate, mean ± SD; for IC50: read-out: IC50 against F. solani
Method: as §1, §2

[14] = test system: C. tropicalis VKM Y-2771; type: cell-based, Candida tropicalis; conditions: YPD-P medium, peptide 0.5–300 µM, 30 °C, 24 h, absorbance 594 nm, triplicate, mean ± SD; read-out: IC50 against C. tropicalis
Description: as §3

[15] = test system: Cryptococcus neoformans VKM Y-2755; conditions: read-out: IC50 against C. neoformans; YPD-P medium, peptide 0.5–300 µM, 30 °C, 24 h, absorbance 594 nm, triplicate, mean ± SD

Row | SMILES | IC50 [2] [µM] | IC50 [3] [µM] | IC50 [4] [µM] | IC50 [5] [µM] | IC50 [6] [µM] | IC50 [9] [µM] | IC50 [11] [µM] | IC50 [12] [µM] | IC50 [13] [µM] | also measured
1 | CC(C)C[C@H](NC(=O)[C@H](CCCCN)NC(=O)[C@H](CS)NC(=O)[C@H](CCCNC(=N)N)NC(=O)CN)C(=O)N[C@@H](CO)C(=O)N[C@@H](CO)C(=O)N[C@@H](CCCNC(=N)N)C(=O)N1CCC[C@H]1C(=O)N[C@@H](CCCCN)C(=O)N[C@@H](CC(C)C)C(=O)N[C@@H](CS)C(=O)N[C@@H](CCCCN)C(=O)N[C@@H](CCCNC(=N)N)C(=O)O [γ54-69FuSN5] (H-GRCKLSSRPKLCKR-OH; N-terminus and C-terminus assumed) | > 300 | > 300 | > 300 |  |  |  |  |  |  | IC50 [1]: > 300 µM
2 | CC[C@H](C)[C@H](NC(=O)[C@H](Cc1c[nH]cn1)NC(=O)[C@H](CO)NC(=O)[C@H](CS)NC(=O)[C@H](CCCCN)NC(=O)CN)C(=O)N[C@@H](CC(C)C)C(=O)N[C@@H](CCCNC(=N)N)C(=O)N[C@@H](CCCNC(=N)N)C(=O)N[C@@H](CS)C(=O)N[C@@H](CCCNC(=N)N)C(=O)N[C@@H](CS)C(=O)N[C@@H](CO)C(=O)N[C@@H](CCCCN)C(=O)N[C@@H](CO)C(=O)N[C@@H](CS)C(=O)O [γ59-74FuDEFL1-1] (H-GKCSHILRRCRCSKSC-OH; N-terminus and C-terminus assumed) |  |  | > 300 |  |  |  |  |  |  | 
3 | CC[C@H](C)[C@H](NC(=O)[C@H](CS)NC(=O)[C@H](C)NC(=O)CN)C(=O)N[C@@H](C)C(=O)N[C@@H](CCCNC(=N)N)C(=O)N[C@@H](CS)C(=O)N[C@@H](CCCNC(=N)N)C(=O)N[C@@H](CC(C)C)C(=O)N[C@@H](CO)C(=O)N[C@@H](CO)C(=O)N[C@@H](CCCNC(=N)N)C(=O)N1CCC[C@H]1C(=O)N[C@@H](CC(N)=O)C(=O)N[C@@H](CC(C)C)C(=O)N[C@@H](CS)C(=O)N[C@@H](CCCCN)C(=O)N[C@@H](CCCNC(=N)N)C(=O)O [γ48-67FuSN6] (H-GACIARCRLSSRPNLCKR-OH; N-terminus and C-terminus assumed) | 46.2 ± 3.2 | 154 ± 4.4 | > 300 | 19.3 ± 1.2 | 15.8 ± 0.6 | 34.7 ± 0.5 | 97.2 ± 0.2 | > 300 | 51.4 ± 0.9 | IC50 [7]: 2.1 µM; IC50 [8]: 93.8 ± 4.2 µM; IC50 [10]: 38 ± 4.6 µM; IC50 [14]: 1.7 ± 0.6 µM; IC50 [15]: 5.5 ± 0.2 µM
4 | CC(C)C[C@H](NC(=O)CN)C(=O)N[C@@H](CS)C(=O)N[C@@H](CCCCN)C(=O)N[C@@H](Cc1ccc(O)cc1)C(=O)N[C@@H](CCCNC(=N)N)C(=O)N[C@@H](CS)C(=O)N[C@@H](CO)C(=O)N[C@@H](CC(C)C)C(=O)N[C@@H](Cc1c[nH]cn1)C(=O)N[C@@H](CO)C(=O)N[C@@H](CCCNC(=N)N)C(=O)N1CCC[C@H]1C(=O)N[C@@H](CC(N)=O)C(=O)N[C@H](C(=O)N[C@@H](CS)C(=O)N[C@@H](Cc1ccccc1)C(=O)N[C@@H](CCCNC(=N)N)C(=O)O)C(C)C [γ89-106SlSN9, reference compound] (H-GLCKYRCSLHSRPNVCFR-OH) | 55.1 ± 7 | 118 ± 12 |  | 23.1 ± 4.5 | 34.1 ± 1 | 41.9 ± 0.5 | 127.6 ± 0.9 | 214 ± 47.1 | 50.5 ± 1.4 | IC50 [1]: 130 ± 2.9 µM; IC50 [7]: 3.3 ± 0.2 µM; IC50 [8]: 93.6 ± 5.2 µM; IC50 [10]: 32.3 ± 6.5 µM; IC50 [14]: 6.1 ± 0.1 µM; IC50 [15]: 6.3 ± 3.8 µM
5 | CC[C@H](C)[C@H](NC(=O)[C@H](Cc1c[nH]cn1)NC(=O)[C@H](CO)NC(=O)[C@H](CS)NC(=O)[C@H](CCCCN)NC(=O)CN)C(=O)N[C@@H](CC(C)C)C(=O)N[C@@H](CCCNC(=N)N)C(=O)N[C@@H](CCCNC(=N)N)C(=O)N[C@@H](CS)C(=O)N[C@@H](Cc1ccccc1)C(=O)N[C@@H](CS)C(=O)N[C@H](C(=O)N[C@H](C(=O)N[C@@H](Cc1c[nH]cn1)C(=O)N[C@@H](CS)C(=O)O)[C@@H](C)O)[C@@H](C)O [FuD0] (H-GKCSHILRRCFCTTHC-OH; N-terminus and C-terminus assumed) |  |  | > 300 |  |  |  |  |  |  | 
6 | CC[C@H](C)[C@H](NC(=O)[C@H](Cc1c[nH]cn1)NC(=O)[C@H](CO)NC(=O)[C@H](CS)NC(=O)[C@H](CCCCN)NC(=O)CN)C(=O)N[C@@H](CC(C)C)C(=O)N[C@@H](CCCNC(=N)N)C(=O)N[C@@H](CCCNC(=N)N)C(=O)N[C@@H](CS)C(=O)N[C@@H](CCC(N)=O)C(=O)N[C@@H](CS)C(=O)N[C@@H](CC(C)C)C(=O)N[C@@H](CCCCN)C(=O)N[C@@H](CO)C(=O)N[C@@H](CS)C(=O)O [γ61-76FuDEFL1-7] (H-GKCSHILRRCQCLKSC-OH; N-terminus and C-terminus assumed) |  |  | > 300 |  |  |  |  |  |  | 
7 | CSCC[C@H](NC(=O)[C@H](CC(=O)O)NC(=O)[C@@H](NC(=O)[C@H](Cc1ccc(O)cc1)NC(=O)[C@H](CS)NC(=O)[C@H](CO)NC(=O)CN)[C@@H](C)O)C(=O)N[C@H](C(=O)N[C@H](C(=O)N[C@@H](Cc1c[nH]cn1)C(=O)NCC(=O)N[C@@H](CC(N)=O)C(=O)N[C@@H](CCCNC(=N)N)C(=O)N[C@@H](CC(C)C)C(=O)N[C@@H](CCCCN)C(=O)N[C@@H](CS)C(=O)N1CCC[C@H]1C(=O)O)[C@@H](C)O)[C@@H](C)O [γ88-104FuSN3] (H-GSCYTDMTTHGNRLKCP-OH; N-terminus and C-terminus assumed) |  |  | > 300 | > 300 | > 300 | > 300 | > 300 | > 300 | > 300 | IC50 against F. culmorum [5]: inactive; IC50 against F. oxysporum [6]: inactive; IC50 against P. carotovorum [4]: failed to inhibit the growth; IC50 against C. michiganensis [9]: failed to inhibit the growth; IC50 against F. verticillioides [10]: very low activity; IC50 against P. savastanoi [11]: failed to inhibit the growth; IC50 against F. solani [13]: inactive
